From PubChem BioAssay (NCI)
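GI50: concentration for 50% inhibition of growth. TGI is the concentration that stops growth completely.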

Legend:
Test in all cases: NCI-60 cell line screen, 384-well format; in the data active means GI50 below about 0.43 µM; inactive means the rest
NCI-H226 lung = tested on: NCI-H226 lung
NCI-H23 lung = tested on: NCI-H23 lung
NCI-H322M lung = tested on: NCI-H322M lung
NCI-H460 NSCLC = tested on: NCI-H460 NSCLC
NCI-H522 lung = tested on: NCI-H522 lung
NCI/ADR-RES ovarian = tested on: NCI/ADR-RES ovarian
OVCAR-3 ovarian = tested on: OVCAR-3 ovarian
OVCAR-4 ovarian = tested on: OVCAR-4 ovarian
OVCAR-5 ovarian = tested on: OVCAR-5 ovarian
OVCAR-8 ovarian = tested on: OVCAR-8 ovarian
PC-3 prostate = tested on: PC-3 prostate
RPMI-8226 leukemia = tested on: RPMI-8226 leukemia
RXF 393 renal = tested on: RXF 393 renal
SF-268 CNS = tested on: SF-268 CNS
SF-295 CNS = tested on: SF-295 CNS
SF-539 CNS = tested on: SF-539 CNS
SK-MEL-28 melanoma = tested on: SK-MEL-28 melanoma
SK-MEL-5 melanoma = tested on: SK-MEL-5 melanoma
SK-OV-3 ovarian = tested on: SK-OV-3 ovarian
SN12C renal = tested on: SN12C renal
SNB-19 CNS = tested on: SNB-19 CNS
SNB-75 CNS = tested on: SNB-75 CNS
SW-620 colon = tested on: SW-620 colon
T-47D breast = tested on: T-47D breast
TK-10 renal = tested on: TK-10 renal
U251 glioblastoma = tested on: U251 glioblastoma
UACC-257 melanoma = tested on: UACC-257 melanoma
UACC-62 melanoma = tested on: UACC-62 melanoma
UO-31 renal = tested on: UO-31 renal

COC[C@H](NC(=O)c1cnc(C)s1)C(=O)N[C@@H](COC)C(=O)N[C@@H](Cc1ccccc1)C(=O)[C@@]1(C)CO1
29.8 nM: TGI (OVCAR-4 ovarian)
23 nM: TGI (SK-OV-3 ovarian)
inactive: GI50 (NCI/ADR-RES ovarian) 1290 nM
< 10 nM: TGI (NCI-H226 lung) | TGI (NCI-H23 lung) | TGI (NCI-H522 lung) | TGI (OVCAR-3 ovarian) | TGI (RPMI-8226 leukemia) | TGI (RXF 393 renal) | TGI (SF-268 CNS) | TGI (SF-295 CNS) | TGI (SF-539 CNS) | TGI (SK-MEL-5 melanoma) | TGI (SNB-75 CNS) | TGI (SW-620 colon) | TGI (T-47D breast) | TGI (UACC-62 melanoma)
12.8 nM: TGI (SK-MEL-28 melanoma)
active: GI50 (NCI-H226 lung) < 10 nM | GI50 (NCI-H23 lung) < 10 nM | GI50 (NCI-H322M lung) < 10 nM | GI50 (NCI-H460 NSCLC) 23.1 nM | GI50 (NCI-H522 lung) < 10 nM | GI50 (OVCAR-3 ovarian) < 10 nM | GI50 (OVCAR-4 ovarian) 12.3 nM | GI50 (OVCAR-5 ovarian) < 10 nM | GI50 (OVCAR-8 ovarian) < 10 nM | GI50 (PC-3 prostate) 10.5 nM | GI50 (RPMI-8226 leukemia) < 10 nM | GI50 (RXF 393 renal) < 10 nM | GI50 (SF-268 CNS) < 10 nM | GI50 (SF-295 CNS) < 10 nM | GI50 (SF-539 CNS) < 10 nM | GI50 (SK-MEL-28 melanoma) < 10 nM | GI50 (SK-MEL-5 melanoma) < 10 nM | GI50 (SK-OV-3 ovarian) < 10 nM | GI50 (SN12C renal) 10.7 nM | GI50 (SNB-19 CNS) < 10 nM | GI50 (SNB-75 CNS) < 10 nM | GI50 (SW-620 colon) < 10 nM | GI50 (T-47D breast) < 10 nM | GI50 (TK-10 renal) < 10 nM | GI50 (U251 glioblastoma) 10.2 nM | GI50 (UACC-257 melanoma) < 10 nM | GI50 (UACC-62 melanoma) < 10 nM | GI50 (UO-31 renal) 17.2 nM
11.7 nM: TGI (UACC-257 melanoma)
99.6 nM: TGI (NCI-H460 NSCLC)
2910 nM: TGI (NCI/ADR-RES ovarian)
62.2 nM: TGI (OVCAR-8 ovarian)
25.6 nM: TGI (U251 glioblastoma)
33 nM: TGI (UO-31 renal)
24 nM: TGI (PC-3 prostate)
30.3 nM: TGI (SN12C renal)
16.4 nM: TGI (SNB-19 CNS)
22.5 nM: TGI (TK-10 renal)
81.2 nM: TGI (OVCAR-5 ovarian)
236 nM: TGI (NCI-H322M lung)
